Assay results: patent publication US5051417A, “Indolythiadiazines for treating heart failure” (Les Laboratoires Beecham S.A., priority 1988, dated 1991)

Experiments:
canine cardiac PDE, CAM = test: Canine cardiac PDE inhibition, CAM; type: biochemical; conditions: n in table
canine cardiac PDE, CGI = target: T1, canine cardiac PDE, CGI (Canis lupus familiaris, UniProt A0A8I3NYE0); test: Canine cardiac PDE inhibition, CGI; type: biochemical; conditions: n in table
T1 construct: CANINE CARDIAC PDE; from tissue; host or cells: dog heart
T1 sequence (A0A8I3NYE0 1-1135): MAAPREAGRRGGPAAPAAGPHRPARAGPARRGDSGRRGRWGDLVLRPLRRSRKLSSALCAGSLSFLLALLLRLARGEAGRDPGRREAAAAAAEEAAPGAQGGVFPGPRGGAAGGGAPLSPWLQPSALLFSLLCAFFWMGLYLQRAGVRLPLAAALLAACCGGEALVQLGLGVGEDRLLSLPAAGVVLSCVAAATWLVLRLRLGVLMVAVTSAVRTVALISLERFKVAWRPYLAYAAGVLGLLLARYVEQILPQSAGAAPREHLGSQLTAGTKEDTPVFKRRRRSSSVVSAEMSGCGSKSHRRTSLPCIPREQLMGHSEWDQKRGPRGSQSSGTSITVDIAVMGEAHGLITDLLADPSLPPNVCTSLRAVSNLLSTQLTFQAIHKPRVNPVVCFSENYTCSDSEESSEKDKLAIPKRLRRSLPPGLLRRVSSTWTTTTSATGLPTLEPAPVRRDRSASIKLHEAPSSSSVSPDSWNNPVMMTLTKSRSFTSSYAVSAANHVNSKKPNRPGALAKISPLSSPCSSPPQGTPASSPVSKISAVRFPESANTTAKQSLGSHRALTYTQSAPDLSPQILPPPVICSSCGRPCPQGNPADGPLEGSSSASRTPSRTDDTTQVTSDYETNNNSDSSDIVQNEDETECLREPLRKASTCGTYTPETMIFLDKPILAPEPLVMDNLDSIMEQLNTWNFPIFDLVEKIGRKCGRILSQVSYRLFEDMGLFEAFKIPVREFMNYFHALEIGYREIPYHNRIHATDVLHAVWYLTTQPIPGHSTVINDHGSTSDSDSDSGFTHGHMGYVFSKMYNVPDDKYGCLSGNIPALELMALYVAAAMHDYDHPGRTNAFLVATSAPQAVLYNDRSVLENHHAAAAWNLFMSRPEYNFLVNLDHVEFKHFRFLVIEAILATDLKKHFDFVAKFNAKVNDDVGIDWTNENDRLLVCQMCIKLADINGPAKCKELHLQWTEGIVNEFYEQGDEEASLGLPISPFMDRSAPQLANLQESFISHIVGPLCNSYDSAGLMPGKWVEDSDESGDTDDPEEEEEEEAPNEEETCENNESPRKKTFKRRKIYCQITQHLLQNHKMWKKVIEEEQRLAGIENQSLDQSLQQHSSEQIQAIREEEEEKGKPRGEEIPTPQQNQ

[1] = tested on: canine cardiac myofibrillar Ca++-dependent Mg++-ATPase; test: Measurement of myofibrillar Ca++-dependent Mg++-ATPase activity on canine cardiac myofibrils; type: biochemical; conditions: 30 μM, pH 7.0, 21° C.; for max (percent change of maximal ATPase activity): pCa=5.47
Description: 1. Measurement of myofibrillar Ca++-dependent Mq++-ATPase activity The effect on myofibrillar Ca++sensitivity and on maximal activity of myofibrillar Ca++-dependent Mg++-ATPase was determined on canine cardiac myofibrils. (a) Contractile protein preparation Cardiac myofibrils free of membrane contaminants were prepared from left ventricular tissue of dog hearts using a modification of the method described by SOLARO et al, Biochem. Biophys. Acta, 245, 259-262, (1971). Before centrifugation, the heart homogenate was filtered through gauze. After Triton X-100 treatments, the myofibrillar fraction was washed once by resuspension and centrifugation in 10 volumes of 1 mM EGTA, […], 30 mM imidazole, 2 mM MgCl2, pH 7.0. The pellet was then washed three times in 10 volumes of the same buffer without EGTA. Before the last centrifugation, the suspension of myofibrils was filtered through a stainless steel sieve with 0.25 mm meshes. Myofibrils were kept in pellet overnight. Before use, the pellet was suspended in a small amount of buffer, the protein concentration was determined by the method of BRADFORD M., Anal. Biochem., 1976, 72, 248 and adjusted in order to have a concentration between 6 and 7 mg/ml. (b) Myofibrillar ATPase activity Ca++-dependent myfibrillar ATPase activity was determined at 21° C., pH 7.0, by measuring the rate of release of inorganic phosphate. All assays were performed within 24hrs. of final purification, using the method described by SOLARO and […]., 51. 290-4,(1982). Reaction mixtures (4 ml) containing 0.6-0.7 mg/ml myofibrillar protein, 80mM KCl, 20 mM imidazole, 3 mM MgCl2, 1 mM EGTA, the desired amount of CaCl2, and the indicated concentration of drug or appropriate vehicle were preincubated for 6 min. prior to assay. The amount of CaCl2 was varied between 0 and 0.9 mM and the pCa (-log free Ca++) computed using 2.514×10^6 M^-1 as the apparent affinity of Ca++for EGTA at pH 7.0. Reactions were initiated by the addition of Na2 ATP to final concentration of 2 mM. After an incubation period of 12 min., reactions were quenched by the addition of an equal volume of ice-cold 10% trichloroacetic acid. The protein was pelleted by centrifugation (2000 g, 15 min.) and Pi was assayed in the supernatant fraction using a modification of the method described by LANZETTA et al, Anal. Biochem., 100, 95-97, (1979). The following solutions were prepared: (1) 3.7% ammonium heptamolybdate in 0.12 N H2 SO4 (2) 0.074% malachite green oxalate in 1% polyvinylic alcohol. The colour reagent was prepared by mixing an equal volume of solution (1) and (2) 15 min. before the assay. For the assay, 1,700 μl of 1% H2 SO4 and 1 ml of colour reagent were added to 100 μl of sample. Colour development occurred at room temperature for 30 min. and was quenched by the addition of 200 μl of 1M tri-potassium citrate. The absorbance was measured at 620 millimicrons. The effect of each compound, tested at the indicated concentration, on the relation between pCa and percent activation was determined taking 100% for the maximum ATPase activity obrained with vehicle alone. The effect on Ca++sensitivity was quantified by measuring the shift of the pCa giving 50% of the maximal control ATPase activity. The effect on maximal ATPase activity was expressed as the percent change of ATPase activity for pCa=5.47. Mean effects on myofibrillar ATPase activity were obtained from 1 to 5 preparations, (compounds tested at 2×10^-4 M).

anaesthetised dog = test: Cardiotonic activity in the dog (haemodynamics); type: in vivo, dog (male Beagle); conditions: i.v.

With `CC1SC(=O)NN=C1c1ccc2c(c1)C(=NNC(N)=S)C(=O)N2` (centres unmarked) [Example 4, 2-[2,3-Dihydro-5-(3,6-dihydro-6-methyl-2-oxo-2H-1,3,4-thiadiazin-5-yl)-2-oxo-1H-indol-3-ylidene]-hydrazine carbothioamide] the IC50 (canine cardiac PDE, CAM) was greater than 300 µM and the IC50 (canine cardiac PDE, CGI) was 0.44 µM.

In the case of `CC1SC(=O)NN=C1c1ccc2c(c1)C(=Nc1ccccc1)C(=O)N2` (centres unmarked) [Example 6, 1,3-6-Dihydro-5-(3,6-dihydro-6-methyl-2-oxo-2H-1,3,4-thiadiazin-5-yl)-3-phenylimino-2H-indol-2-one], the IC50 (canine cardiac PDE, CAM) is reported as greater than 300 µM, the IC50 (canine cardiac PDE, CGI) is reported as 1.2 µM and the “max (percent change of maximal ATPase activity)” value [1] is reported as -2 ± 6%. The “pCa (shift of the pCa giving 50% of the maximal control ATPase activity; Ca++ sensitivity)” value [1] was “+0.38 ± 0.06”.

With `CC1SC(=O)NN=C1c1ccc2c(c1)C(=NN)C(=O)N2` (centres unmarked) [Example 7, 5-(3,6-Dihydro-6-methyl-2-oxo-2H-1,3,4-thiadiazin-5-yl)-1H -indole-2,3-dione 3-hydrazone] the IC50 (canine cardiac PDE, CAM) was 42 µM, the IC50 (canine cardiac PDE, CGI) was 2.3 µM and the “max (percent change of maximal ATPase activity)” value [1] was -3 ± 5%. For the same compound, the “pCa (shift of the pCa giving 50% of the maximal control ATPase activity; Ca++ sensitivity)” value [1] was “+0.17 ± 0.02”.

With `CC1SC(=O)NN=C1c1ccc2c(c1)C(=C(C#N)C#N)C(=O)N2` (centres unmarked) [Example 9, [5-(3,6-Dihydro-6-methyl-2-oxo-2H-1,3,4-thiadiazin-5-yl) -1,2-dihydro-2-oxo-3H-indol-3-ylidene]-propane-dinitrile] the IC50 (canine cardiac PDE, CAM) was 31 µM, the IC50 (canine cardiac PDE, CGI) was 2.1 µM and the “max (percent change of maximal ATPase activity)” value [1] was -20 ± 3%. The “pCa (shift of the pCa giving 50% of the maximal control ATPase activity; Ca++ sensitivity)” value [1] was “+0.05 ± 0.07”.

For `CC1SC(=O)NN=C1c1ccc2c(c1)C(=Cc1ccccc1)C(=O)N2` (centres unmarked) [Example 10, 1,3-Dihydro-5-(3,6-dihydro-6-methyl-2-oxo-2H-1,3,4-thiadiazin-5-yl)-3-phenylmethylene-2H-indol-2-one], the IC50 (canine cardiac PDE, CAM) was 20 µM, the IC50 (canine cardiac PDE, CGI) was 0.35 µM and the “max (percent change of maximal ATPase activity)” value [1] was -13 ± 3%. For the same compound, the “pCa (shift of the pCa giving 50% of the maximal control ATPase activity; Ca++ sensitivity)” value [1] was “+0.43 ± 0.07”.

In the case of `CC1SC(=O)NN=C1c1ccc2c(c1)C(=NOc1ccccc1)C(=O)N2` (centres unmarked) [Example 11, 1,3,-Dihydro-5-(3,6-dihydro-6-methyl-2-oxo-2H-1,3,4-thiadiazin-5-yl)-3-phenoxyimino-2H-indol-2-one], the IC50 (canine cardiac PDE, CAM) is reported as greater than 300 µM, the IC50 (canine cardiac PDE, CGI) is reported as 0.68 µM and the “max (percent change of maximal ATPase activity)” value [1] is reported as 8 ± 2%. The “pCa (shift of the pCa giving 50% of the maximal control ATPase activity; Ca++ sensitivity)” value [1] was “+0.36 ± 0.05”.

With `CC1SC(=O)NN=C1c1ccc2c(c1)C(=NNC(=N)N)C(=O)N2` (centres unmarked) [Example 12, 5-(3,6-Dihydro-6-methyl-2-oxo-2H-1,3,4-thiadiazin-5-yl) -1H-indole-2,3-dione 3-[2-(aminomethanimino)hydrazone]] the IC50 (canine cardiac PDE, CGI) was 1.8 µM, the “max (percent change of maximal ATPase activity)” value [1] was -1 ± 2% and the “pCa (shift of the pCa giving 50% of the maximal control ATPase activity; Ca++ sensitivity)” value [1] was “+0.08 ± 0.02”.

For `CC1SC(=O)NN=C1c1ccc2c(c1)C(=NNC1=NCCN1)C(=O)N2` (centres unmarked) [Example 13], the IC50 (canine cardiac PDE, CGI) was 14 µM, the “max (percent change of maximal ATPase activity)” value [1] was 2 ± 2% and the “pCa (shift of the pCa giving 50% of the maximal control ATPase activity; Ca++ sensitivity)” value [1] was “+0.07 ± 0.02”.

For `CC1SC(=O)NN=C1c1ccc2c(c1)C(=Nc1ccc(N(C)C)cc1)C(=O)N2` (centres unmarked) [Example 14, 1,3-Dihydro-5-(3,6-dihydro-6-methyl-2-oxo-2H-1,3,4-thiadiazin-5-yl)-3-(4-dimethylaminophenylimino)-2H -indol-2-one], the IC50 (canine cardiac PDE, CAM) was 5.6 µM, the IC50 (canine cardiac PDE, CGI) was 0.62 µM and the “max (percent change of maximal ATPase activity)” value [1] was 0 ± 3%. For the same compound, the “pCa (shift of the pCa giving 50% of the maximal control ATPase activity; Ca++ sensitivity)” value [1] was “+0.12 ± 0.02”.

`CC1SC(=O)NN=C1c1ccc2c(c1)C(=Cc1ccncc1)C(=O)N2` (centres unmarked) [Example 18] was tested, and the IC50 (canine cardiac PDE, CAM) was 4 µM, the IC50 (canine cardiac PDE, CGI) was 1.9 µM and the “max (percent change of maximal ATPase activity)” value [1] was -28 ± 4%. The “pCa (shift of the pCa giving 50% of the maximal control ATPase activity; Ca++ sensitivity)” value [1] was “+0.04 ± 0.08”.

`CC1SC(=O)NN=C1c1ccc2c(c1)C(=NNc1ccccc1C(F)(F)F)C(=O)N2` (centres unmarked) [Example 31, 5-(3,6-Dihydro-6-methyl-2-oxo-2H-1,3,4-thiadiazin-5-yl) -1H-indole-2,3-dione 3-[(2-trifluoromethyl)phenylhydrazone]] was tested, and the “max (percent change of maximal ATPase activity)” value [1] was 26 ± 7%, the “pCa (shift of the pCa giving 50% of the maximal control ATPase activity; Ca++ sensitivity)” value [1] was “+0.43 ± 0.04” and the AoBF (anaesthetised dog; 0.01 mg/kg) was “+11 ± 5%”. For the same compound, the AoBP (anaesthetised dog; 0.01 mg/kg) was -8 ± 1%, the H.R. (anaesthetised dog; 0.01 mg/kg) was “+8 ± 2%” and the “dP/dt Max” value (anaesthetised dog; 0.01 mg/kg) was “+9 ± 3%”. The AoBF (anaesthetised dog; 0.03 mg/kg) was “+19 ± 8%”, the AoBP (anaesthetised dog; 0.03 mg/kg) was -15 ± 1% and the H.R. (anaesthetised dog; 0.03 mg/kg) was “+30 ± 4%”. The “dP/dt Max” value (anaesthetised dog; 0.03 mg/kg) was “+44 ± 13%”, the AoBF (anaesthetised dog; 0.1 mg/kg) was “+13 ± 6%” and the AoBP (anaesthetised dog; 0.1 mg/kg) was -23 ± 2%. The H.R. (anaesthetised dog; 0.1 mg/kg) was “+39 ± 6%” and the “dP/dt Max” value (anaesthetised dog; 0.1 mg/kg) was “+93 ± 13%”.

For `CC1SC(=O)NN=C1c1ccc2c(c1)C(=NNC(=O)c1ccncc1)C(=O)N2` (centres unmarked) [Example 39], the “max (percent change of maximal ATPase activity)” value [1] was 3 ± 2% and the “pCa (shift of the pCa giving 50% of the maximal control ATPase activity; Ca++ sensitivity)” value [1] was “+0.04 ± 0.02”.

In the case of `CC1SC(=O)N(C)N=C1c1ccc2c(c1)C(=NNc1ccccc1)C(=O)N2` (centres unmarked) [Example 41], the “max (percent change of maximal ATPase activity)” value [1] is reported as 7 ± 2% and the “pCa (shift of the pCa giving 50% of the maximal control ATPase activity; Ca++ sensitivity)” value [1] is reported as “+0.11 ± 0.04”.

In the case of `CC1SC(=O)NN=C1c1ccc2c(c1)C(=NNc1ccc(C(F)(F)F)cc1)C(=O)N2` (centres unmarked) [Example 42, 5-(3,6-Dihydro-6-methyl-2-oxo-2H-1,3,4-thiadiazin-5-yl) -1H-indole-2,3-dione 3-[4-trifluoromethylphenylhydrazone]], the “max (percent change of maximal ATPase activity)” value [1] is reported as 11 ± 4% and the “pCa (shift of the pCa giving 50% of the maximal control ATPase activity; Ca++ sensitivity)” value [1] is reported as “+0.30 ± 0.02”.
